Experimental data as given in patent US6358885B1, “Substituted phenylheterocyclic herbicides” (Mississippi State University, priority 1992, dated 2002).

How the values were obtained:
[1] = system: arrowhead; assay: Test D paddy water application plant response rating 0 to 100; format: in vivo, Sagittaria spp.; conditions: 0 to 100 scale, approx. 21 days
Outline: (§1)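 Silt loam, saturated; flood 3 cm kept throughout. Compound in non-phytotoxic solvent dosed into paddy water.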

[2] = system: wild mustard; assay: Test F preemergence/postemergence greenhouse plant response rating 0 to 100; format: in vivo, Sinapis arvensis; conditions: POSTEMERGENCE, 0 to 100 scale
Text: (§2) Compounds evaluated in this test were formulated in a non-phytoxic solvent and applied to the soil surface before plant seedlings emerged (preemergence application) and to plants that were in the one-to-four leaf stage (postemergence application). A sandy loam soil was used for the preemergence test while a mixture of sandy loam soil and greenhouse potting mix in a 60:40 ratio was used for the postemergence test. Test compounds were applied within approximately one day after planting seeds for the preemergence test. Plantings of these crops and weed species were adjusted to produce plants of appropriate size for the postemergence test. All plant species were grown using normal greenhouse practices. Crop and weed species include winter barley (Hordeum vulgare cv. ‘Igri’), blackgrass (Alopecurus myosuroides), chickweed (Stellaria media), downy brome (Bromus tectorum), field violet (Viola arvensis), galium (Galium aparine), green foxtail (Setaria viridis), kochia (Kochia scoparia), lambsquarters (Chenopodium album), speedwell (Veronica persica), rape (Brassica napus), ryegrass (Lolium multiflorum), sugar beet (Beta vulgaris cv. ‘USl’), sunflower (Helianthus annuus cv. ‘Russian Giant’), spring wheat (Triticum aestivum cv. ‘ERA’), winter wheat (Triticum aestivum cv. ‘Talent’), wild buckwheat (Polygonum convolvulus), wild mustard (Sinapis arvensis), wild oat (Avena fatua), and wild radish (Raphanus raphanistrum). Blackgrass, galium and wild oat were treated at two growth stages. […] Treated plants and untreated controls were maintained in a greenhouse for approximately 21 to 28 days, after which all treated plants were compared to untreated controls and visually evaluated. […] A dash response (-) means no test result.

[3] = system: waterchestnut; assay: Test D paddy water application plant response rating 0 to 100; format: in vivo, Eleocharis spp.; conditions: 0 to 100 scale, approx. 21 days
Outline: as §1

[4] = system: green foxtail; assay: Test F preemergence/postemergence greenhouse plant response rating 0 to 100; format: in vivo, Setaria viridis; conditions: POSTEMERGENCE, 0 to 100 scale
Text: as §2

[5] = system: umbrella sedge; assay: Test D paddy water application plant response rating 0 to 100; format: in vivo, Cyperus difformis; conditions: 0 to 100 scale, approx. 21 days
Outline: as §1

[6] = system: Japonica rice; assay: as above; format: in vivo, Oryza sativa; conditions: 0 to 100 scale, approx. 21 days
Outline: as §1

[7] = system: wild oat; assay: Test F preemergence/postemergence greenhouse plant response rating 0 to 100; format: in vivo, Avena fatua; conditions: POSTEMERGENCE, 0 to 100 scale; for Wild oat (1) plant response rating: stage (1) two to three leaves; for Wild oat (2) plant response rating: stage (2) approximately four leaves or initial tillering
Text: as §2

[8] = system: lambsquarters; assay: as above; format: in vivo, Chenopodium album; conditions: POSTEMERGENCE, 0 to 100 scale
Text: as §2

[9] = system: barnyardgrass; assay: Test D paddy water application plant response rating 0 to 100; format: in vivo, Echinochloa crus-galli; conditions: 0 to 100 scale, approx. 21 days
Outline: as §1

[10] = system: Japonica rice; assay: Test E paddy water application plant response rating 0 to 100; format: in vivo, oryza sativa; conditions: Flood, 0 to 100 scale, approx. 21 days
Outline: (§3)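 Greenhouse paddy test: flooded pots of silt loam (water 2 cm over soil) received the solvent-formulated chemical directly in the water.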

[11] = system: duck salad; assay: Test D paddy water application plant response rating 0 to 100; format: in vivo, Heteranthera limosa; conditions: 0 to 100 scale, approx. 21 days
Outline: as §1

[12] = system: kochia; assay: Test F preemergence/postemergence greenhouse plant response rating 0 to 100; format: in vivo, Kochia scoparia; conditions: POSTEMERGENCE, 0 to 100 scale
Text: as §2

[13] = system: rape; assay: as above; format: in vivo, Brassica napus; conditions: POSTEMERGENCE, 0 to 100 scale
Text: as §2

[14] = system: barnyardgrass; assay: Test E paddy water application plant response rating 0 to 100; format: in vivo, Echinochloa crus-galli; conditions: Flood, 0 to 100 scale, approx. 21 days
Outline: as §3

## Fc1cc(Cl)c(OCCCl)cc1-c1nn2c(c1Cl)CCCC2 [Compound 49]
[1]; Rate 4 g/ha
  Arrowhead plant response rating: 0
[1]; Rate 8 g/ha
  Arrowhead plant response rating: 0
[1]; Rate 16 g/ha
  Arrowhead plant response rating: 0
[1]; Rate 64 g/ha
  Arrowhead plant response rating: 0
[2]; Rate 2 g/ha
  Wild mustard plant response rating: 90
[2]; Rate 4 g/ha
  Wild mustard plant response rating: 100
[2]; Rate 8 g/ha
  Wild mustard plant response rating: 100
[2]; Rate 32 g/ha
  Wild mustard plant response rating: 100
[3]; Rate 4 g/ha
  Waterchestnut plant response rating: 0
[3]; Rate 8 g/ha
  Waterchestnut plant response rating: 0
[3]; Rate 16 g/ha
  Waterchestnut plant response rating: 0
[3]; Rate 32 g/ha
  Waterchestnut plant response rating: 10
[3]; Rate 64 g/ha
  Waterchestnut plant response rating: 20
[4]; Rate 2 g/ha
  Green foxtail plant response rating: 0
[4]; Rate 4 g/ha
  Green foxtail plant response rating: 0
[4]; Rate 8 g/ha
  Green foxtail plant response rating: 20
[4]; Rate 16 g/ha
  Green foxtail plant response rating: 50
[4]; Rate 32 g/ha
  Green foxtail plant response rating: 60
[5]; Rate 4 g/ha
  Umbrella sedge plant response rating: 0
[5]; Rate 8 g/ha
  Umbrella sedge plant response rating: 0
[5]; Rate 16 g/ha
  Umbrella sedge plant response rating: 0
[5]; Rate 32 g/ha
  Umbrella sedge plant response rating: 0
[5]; Rate 64 g/ha
  Umbrella sedge plant response rating: 50
[6]; Rate 4 g/ha
  Japonica rice plant response rating: 10
[6]; Rate 8 g/ha
  Japonica rice plant response rating: 10
[6]; Rate 16 g/ha
  Japonica rice plant response rating: 10
[6]; Rate 32 g/ha
  Japonica rice plant response rating: 15
[6]; Rate 64 g/ha
  Japonica rice plant response rating: 20
[7]; Rate 2 g/ha
  Wild oat (1) plant response rating: 0
  Wild oat (2) plant response rating: 0
[7]; Rate 4 g/ha
  Wild oat (1) plant response rating: 10
  Wild oat (2) plant response rating: 0
[7]; Rate 8 g/ha
  Wild oat (1) plant response rating: 20
  Wild oat (2) plant response rating: 0
[7]; Rate 16 g/ha
  Wild oat (1) plant response rating: 20
  Wild oat (2) plant response rating: 0
[7]; Rate 32 g/ha
  Wild oat (1) plant response rating: 30
  Wild oat (2) plant response rating: 20
[8]; Rate 4 g/ha
  Lambsquarters plant response rating: 50
[8]; Rate 16 g/ha
  Lambsquarters plant response rating: 50
[8]; Rate 32 g/ha
  Lambsquarters plant response rating: 70
[9]; Rate 4 g/ha
  Barnyardgrass 2 plant response rating: 0
[9]; Rate 8 g/ha
  Barnyardgrass 2 plant response rating: 20
[9]; Rate 16 g/ha
  Barnyardgrass 2 plant response rating: 30
[9]; Rate 32 g/ha
  Barnyardgrass 2 plant response rating: 70
[9]; Rate 64 g/ha
  Barnyardgrass 2 plant response rating: 100
[10]; Rate 8 g/ha
  Japonica 1 plant response rating: 0
  Japonica 2 plant response rating: 0
[10]; Rate 16 g/ha
  Japonica 1 plant response rating: 0
  Japonica 2 plant response rating: 20
[10]; Rate 32 g/ha
  Japonica 1 plant response rating: 0
  Japonica 2 plant response rating: 30
[10]; Rate 64 g/ha
  Japonica 1 plant response rating: 25
  Japonica 2 plant response rating: 30
[11]; Rate 4 g/ha
  Duck salad plant response rating: 0
[11]; Rate 8 g/ha
  Duck salad plant response rating: 0
[11]; Rate 16 g/ha
  Duck salad plant response rating: 0
[11]; Rate 32 g/ha
  Duck salad plant response rating: 0
[11]; Rate 64 g/ha
  Duck salad plant response rating: 10
[12]; Rate 2 g/ha
  Kochia plant response rating: 20
[12]; Rate 4 g/ha
  Kochia plant response rating: 60
[12]; Rate 8 g/ha
  Kochia plant response rating: 80
[12]; Rate 16 g/ha
  Kochia plant response rating: 100
[12]; Rate 32 g/ha
  Kochia plant response rating: 100
[13]; Rate 2 g/ha
  Rape plant response rating: 0
[13]; Rate 4 g/ha
  Rape plant response rating: 0
[13]; Rate 8 g/ha
  Rape plant response rating: 0
[13]; Rate 16 g/ha
  Rape plant response rating: 0
[13]; Rate 32 g/ha
  Rape plant response rating: 20
[14]; Rate 8 g/ha
  Barnyardgrass 2 plant response rating: 25
  Barnyardgrass 3 plant response rating: 35
[14]; Rate 16 g/ha
  Barnyardgrass 2 plant response rating: 45
  Barnyardgrass 3 plant response rating: 45
[14]; Rate 32 g/ha
  Barnyardgrass 2 plant response rating: 90
  Barnyardgrass 3 plant response rating: 55
[14]; Rate 64 g/ha
  Barnyardgrass 2 plant response rating: 100
  Barnyardgrass 3 plant response rating: 70
